# System: SYO-1 complex spheroid growth, percent test/control
# Test: Anticancer human tumor SYO-1 cell line growth inhibition [Asc];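 also: compound exposure lasted 7 days after spheroids grew 3 days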;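 as to viability, T/C: 100% = DMSO vehicle control viability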
# Conditions: for IC50: curve of first compound; for viability, T/C: stronger effect = lower value
# Summary of the method: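 Complex spheroids combining tumor cells with HUVEC endothelial cells and human MSCs, at 37 degrees C, 5% CO2; agents tested alone or combined, half-log dilutions from at or near clinical Cmax, or 10 microM if Cmax unknown.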
# [1] = second compound 0.01 µM, first compound 0.0316 µM
# [2] = second compound 0.01 µM, first compound 0.1 µM
# [3] = second compound 0.01 µM, first compound 0.316 µM
# [4] = second compound 0.01 µM, first compound 1 µM
# [5] = second compound 0.01 µM, first compound 3.16 µM
# [6] = second compound 0.01 µM, first compound 10 µM
# [7] = second compound 0.0316 µM, first compound 0.0316 µM
# [8] = second compound 0.0316 µM, first compound 0.1 µM
# [9] = second compound 0.0316 µM, first compound 0.316 µM
# [10] = second compound 0.0316 µM, first compound 1 µM
# [11] = second compound 0.0316 µM, first compound 3.16 µM
# [12] = second compound 0.0316 µM, first compound 10 µM
# [13] = second compound 0.1 µM, first compound 0.0316 µM
# [14] = second compound 0.1 µM, first compound 0.1 µM
# [15] = second compound 0.1 µM, first compound 0.316 µM
# [16] = second compound 0.1 µM, first compound 1 µM
# [17] = second compound 0.1 µM, first compound 3.16 µM
# [18] = second compound 0.1 µM, first compound 10 µM
# [19] = second compound 0.316 µM, first compound 0.0316 µM
# [20] = second compound 0.316 µM, first compound 0.1 µM
# [21] = second compound 0.316 µM, first compound 0.316 µM
# [22] = second compound 0.316 µM, first compound 1 µM
# [23] = second compound 0.316 µM, first compound 3.16 µM
# [24] = second compound 0.316 µM, first compound 10 µM
# [25] = second compound 1 µM, first compound 0.0316 µM
# [26] = second compound 1 µM, first compound 0.1 µM
# [27] = second compound 1 µM, first compound 0.316 µM
# [28] = second compound 1 µM, first compound 1 µM
# [29] = second compound 1 µM, first compound 3.16 µM
# [30] = second compound 1 µM, first compound 10 µM
structure (smiles),measurement,setting,value
C#Cc1c(F)ccc2cc(O)cc(-c3ncc4c(N5CC6CCC(C5)N6)nc(OCC56CCCN5CC(F)C6)nc4c3F)c12 (centres undefined) + CNC(C)C(=O)NC1CN(S(=O)(=O)c2cccc(S(=O)(=O)N3CCC4CCC(C(=O)NC(c5ccccc5)c5ccccc5)N4C(=O)C(NC(=O)C(C)NC)C3)c2)CCC2CCC(C(=O)NC(c3ccccc3)c3ccccc3)N2C1=O,IC50,second compound 0.00316 µM,> 10 µM
same,IC50,second compound 0.01 µM,> 10 µM
same,IC50,second compound 0.0316 µM,> 10 µM
same,IC50,second compound 0.1 µM,> 10 µM
same,IC50,second compound 0.316 µM,> 10 µM
same,IC50,second compound 1 µM,> 10 µM
same,"viability, T/C","second compound 0.00316 µM, first compound 0.0316 µM",106%
same,"viability, T/C","second compound 0.00316 µM, first compound 0.1 µM",102%
same,"viability, T/C","second compound 0.00316 µM, first compound 0.316 µM",101%
same,"viability, T/C","second compound 0.00316 µM, first compound 1 µM",103%
same,"viability, T/C","second compound 0.00316 µM, first compound 3.16 µM",110%
same,"viability, T/C","second compound 0.00316 µM, first compound 10 µM",106%
same,"viability, T/C",[1],104%
same,"viability, T/C",[2],93.3%
same,"viability, T/C",[3],102%
same,"viability, T/C",[4],108%
same,"viability, T/C",[5],112%
same,"viability, T/C",[6],105%
same,"viability, T/C",[7],96.8%
same,"viability, T/C",[8],106%
same,"viability, T/C",[9],101%
same,"viability, T/C",[10],106%
same,"viability, T/C",[11],106%
same,"viability, T/C",[12],106%
same,"viability, T/C",[13],111%
same,"viability, T/C",[14],97.5%
same,"viability, T/C",[15],105%
same,"viability, T/C",[16],111%
same,"viability, T/C",[17],120%
same,"viability, T/C",[18],99.6%
same,"viability, T/C",[19],98.7%
same,"viability, T/C",[20],99.1%
same,"viability, T/C",[21],108%
same,"viability, T/C",[22],108%
same,"viability, T/C",[23],116%
same,"viability, T/C",[24],102%
same,"viability, T/C",[25],99.7%
same,"viability, T/C",[26],106%
same,"viability, T/C",[27],106%
same,"viability, T/C",[28],103%
same,"viability, T/C",[29],106%
same,"viability, T/C",[30],105%
Cc1nc(N2CCC3(CC2)COC(C)C3N)c(CO)nc1Sc1ccnc(N)c1Cl (centres undefined) + CNC(C)C(=O)NC1CN(S(=O)(=O)c2cccc(S(=O)(=O)N3CCC4CCC(C(=O)NC(c5ccccc5)c5ccccc5)N4C(=O)C(NC(=O)C(C)NC)C3)c2)CCC2CCC(C(=O)NC(c3ccccc3)c3ccccc3)N2C1=O,IC50,second compound 0.00316 µM,> 3 µM
same,IC50,second compound 0.01 µM,> 3 µM
same,IC50,second compound 0.0316 µM,> 3 µM
same,IC50,second compound 0.1 µM,> 3 µM
same,IC50,second compound 0.316 µM,> 3 µM
same,IC50,second compound 1 µM,> 3 µM
same,"viability, T/C","second compound 0.00316 µM, first compound 0.00949 µM",107%
same,"viability, T/C","second compound 0.00316 µM, first compound 0.03 µM",105%
same,"viability, T/C","second compound 0.00316 µM, first compound 0.0949 µM",109%
same,"viability, T/C","second compound 0.00316 µM, first compound 0.3 µM",96.5%
same,"viability, T/C","second compound 0.00316 µM, first compound 0.949 µM",106%
same,"viability, T/C","second compound 0.00316 µM, first compound 3 µM",102%
same,"viability, T/C","second compound 0.01 µM, first compound 0.00949 µM",105%
same,"viability, T/C","second compound 0.01 µM, first compound 0.03 µM",95.8%
same,"viability, T/C","second compound 0.01 µM, first compound 0.0949 µM",101%
same,"viability, T/C","second compound 0.01 µM, first compound 0.3 µM",105%
same,"viability, T/C","second compound 0.01 µM, first compound 0.949 µM",110%
same,"viability, T/C","second compound 0.01 µM, first compound 3 µM",105%
same,"viability, T/C","second compound 0.0316 µM, first compound 0.00949 µM",111%
same,"viability, T/C","second compound 0.0316 µM, first compound 0.03 µM",104%
same,"viability, T/C","second compound 0.0316 µM, first compound 0.0949 µM",102%
same,"viability, T/C","second compound 0.0316 µM, first compound 0.3 µM",106%
same,"viability, T/C","second compound 0.0316 µM, first compound 0.949 µM",115%
same,"viability, T/C","second compound 0.0316 µM, first compound 3 µM",108%
same,"viability, T/C","second compound 0.1 µM, first compound 0.00949 µM",109%
same,"viability, T/C","second compound 0.1 µM, first compound 0.03 µM",103%
same,"viability, T/C","second compound 0.1 µM, first compound 0.0949 µM",104%
same,"viability, T/C","second compound 0.1 µM, first compound 0.3 µM",116%
same,"viability, T/C","second compound 0.1 µM, first compound 0.949 µM",110%
same,"viability, T/C","second compound 0.1 µM, first compound 3 µM",110%
same,"viability, T/C","second compound 0.316 µM, first compound 0.00949 µM",105%
same,"viability, T/C","second compound 0.316 µM, first compound 0.03 µM",107%
same,"viability, T/C","second compound 0.316 µM, first compound 0.0949 µM",108%
same,"viability, T/C","second compound 0.316 µM, first compound 0.3 µM",107%
same,"viability, T/C","second compound 0.316 µM, first compound 0.949 µM",119%
same,"viability, T/C","second compound 0.316 µM, first compound 3 µM",102%
same,"viability, T/C","second compound 1 µM, first compound 0.00949 µM",103%
same,"viability, T/C","second compound 1 µM, first compound 0.03 µM",109%
same,"viability, T/C","second compound 1 µM, first compound 0.0949 µM",104%
same,"viability, T/C","second compound 1 µM, first compound 0.3 µM",103%
same,"viability, T/C","second compound 1 µM, first compound 0.949 µM",115%
same,"viability, T/C","second compound 1 µM, first compound 3 µM",107%
O=C(c1cc(Cc2n[nH]c(=O)c3ccccc23)ccc1F)N1CCN(C(=O)C2CC2)CC1 + CNC(C)C(=O)NC1CN(S(=O)(=O)c2cccc(S(=O)(=O)N3CCC4CCC(C(=O)NC(c5ccccc5)c5ccccc5)N4C(=O)C(NC(=O)C(C)NC)C3)c2)CCC2CCC(C(=O)NC(c3ccccc3)c3ccccc3)N2C1=O,IC50,second compound 0.01 µM,4.73 µM
same,IC50,second compound 0.0316 µM,4.47 µM
same,IC50,second compound 0.1 µM,4.37 µM
same,IC50,second compound 0.316 µM,4.26 µM
same,IC50,second compound 1 µM,3.92 µM
same,"viability, T/C",[1],99.8%
same,"viability, T/C",[2],95.9%
same,"viability, T/C",[3],105%
same,"viability, T/C",[4],94.6%
same,"viability, T/C",[5],71.9%
same,"viability, T/C",[6],9.58%
same,"viability, T/C",[7],104%
same,"viability, T/C",[8],96.8%
same,"viability, T/C",[9],94.2%
same,"viability, T/C",[10],93.6%
same,"viability, T/C",[11],67.5%
same,"viability, T/C",[12],8.65%
same,"viability, T/C",[13],105%
same,"viability, T/C",[14],95.4%
same,"viability, T/C",[15],103%
same,"viability, T/C",[16],93.5%
same,"viability, T/C",[17],66.3%
same,"viability, T/C",[18],8.36%
same,"viability, T/C",[19],98.6%
same,"viability, T/C",[20],94.7%
same,"viability, T/C",[21],99.8%
same,"viability, T/C",[22],96.4%
same,"viability, T/C",[23],65.8%
same,"viability, T/C",[24],5.64%
same,"viability, T/C",[25],97.4%
same,"viability, T/C",[26],102%
same,"viability, T/C",[27],90.3%
same,"viability, T/C",[28],91.7%
same,"viability, T/C",[29],59.9%
same,"viability, T/C",[30],5.84%
